Read-outs that look alike come from different tables or passages of the source. Where only a bound is given, the exact number is not on record here.

The test system of one assay is Mel1617-BR. Kind of assay: Cell proliferation and viability, methylene-blue staining. It is filed as cell-based. To be noted: Homo sapiens, 72 h, melanoma, 3 days exposure. The method, then: (§1) All melanoma cells used and discussed in FIGS. 6-9 and table 1 are from human origin and bearing the mutated BRAF^600K/E.
(§2) Cells were grown in complete medium and treated with inhibitors one day following seeding. 72 hours later, the surviving cells were quantified by methylene blue staining or by WST-1 staining for nonadherent cells (Roche).
(§3) Cells were plated in 96-well plates in 5-10% FCS in medium; a day later exposed to various concentrations of compound A, compound D or OSI-906 and 3 days later stained with methylene-blue and the relative cell number was quantified.

Another assay concerns Mel1617-Pa. Described as above. It is filed as cell-based. As to conditions: Homo sapiens, 72 h, melanoma, 3 days exposure. The method, then:
as §1, §2, §3

The test system of the next assay is 451Lu-BR. The assay is described as above. It counts as cell-based. As to conditions: Homo sapiens, 72 h, melanoma, 3 days exposure. The method, then: (§4) All cell lines were obtained from the American Type Culture Collection. YUMAC, YURIF, YUSIK (all human melanoma, kindly provided by Prof. Ruth Halaban, Yale University, New Haven, Conn.) were cultured in OptiMEM containing 5% FCS. M571, M2068, M560n (all human melanoma, kindly provided by Dr. Michal Lotem, Hadassah Hospital, Jerusalem, Israel) were maintained in RPMI, DMEM and F12 (1:3:1) containing 10% FCS. 451-Lu (human melanoma) and 451-Lu-BR (PLX4032-resistant melanoma; ref. 32) were maintained in RPMI containing 5% FCS (media for resistant lines contained […] PLX4032). All media were supplemented with 100 U/mL penicillin and […] and all cells were grown at 37° C./5% CO2.
as §1, §2, §3

In a further assay the test system is 451Lu-Pa. The description is as above. It counts as cell-based. As to conditions: Homo sapiens, 72 h, melanoma, 3 days exposure. The method, then:
as §4, §1, §2, §3

In another assay the test system is HCT15. Described as above. It counts as cell-based. To be noted: Homo sapiens, HCT-15, 72 h; HCT15, colon cancer; 3 days exposure. The method, then:
Cells were grown in complete medium and treated with inhibitors one day following seeding. 72 hours later, the surviving cells were quantified by methylene blue staining or by WST-1 staining for nonadherent cells (Roche). Cells were plated in 96-well plates in 5-10% FCS in medium; a day later exposed to various concentrations of compound A, compound D or OSI-906 and 3 days later stained with methylene-blue and the relative cell number was quantified.

A further assay deals with MM1S. In words: Cell proliferation and viability. It counts as cell-based. To be noted: Homo sapiens, MM1.S, 72 h, multiple myeloma, 3 days exposure. The method, then:
as §2, §3

The subject of the next assay is HepG2. In words: Cell proliferation and viability, methylene-blue staining. It counts as cell-based. As to conditions: Homo sapiens, 72 h; HepG2, hepatocarcinoma; 3 days exposure. The procedure: as §2, §3
A further assay has as its system PC3. Described as above. It counts as cell-based. To be noted: Homo sapiens, PC-3, 72 h; PC3, prostate cancer; 3 days exposure. The procedure:
as §2, §3

In assay [1] the test system is pStat3 in A375, 451-Lu, Mel1617 cells. Kind of assay: Immunoblot of basal and PLX4032-induced pStat3 in PLX4032-sensitive melanoma cells. It is filed as cell-based, human. To be noted: PLX4032 1 μM added 3-4 hr after the compounds (FIG. 7C-E, 8A). The method, then:
FIGS. 7A-7E. […] FIG. 7A. […] FIG. 7B. […] Cells from patients were grown in complete medium and immunoblotted as described above. […] Compounds A/D block the basal and the PLX4032-induced pStat3. Treatment of PLX4032-sensitive human melanoma A375 (C), 451-Lu (D) or Mel1617 (E) cells with 1 μM PLX4032 for 18-24 hr induces a dramatic increase in pStat3. Compounds A (FIG. 7C, D) or D (FIG. 7E) block both the basal and the PLX4032-induced pStat3. OSI-906, an ATP-competitive inhibitor of IGF1R, has no effect on pStat3.
(§5) • Cells were treated as indicated in FIGS. 6-9 and the corresponding figure legends, following overnight serum-starvation (unless indicated differently). When cells were treated with both PLX4032 and compounds A or D, PLX4032 was added 3-4 hr following the compounds. • Cells were lysed with boiling sample buffer (10% glycerol, 50 mmol/L Tris-HCl, pH 6.8, 3% SDS, and 5% 2-mercaptoethanol). Western blot analysis was conducted in 8% SDS-PAGE, using antibodies described below. • Aliquots of cell extracts containing equal amounts of protein were resolved by 8% SDS/PAGE and electroblotted onto nitrocellulose filters. The membranes were blocked with low-fat milk diluted 1:20 in TBST (NaCl/Tris containing 0.2% Tween-20) for 0.5 hr, incubated with Rabbit anti-phosphoY705-Stat3 antibody (Cell signaling cat #9131), Mouse anti-ERK-diphosphorylated-YT (Sigma Aldrich cat #M8159) or anti-PARP antibodies overnight at 4 C in 5% BSA in TBST containing 0.05% azid, washed extensively with TBST and then incubated with horseradish peroxidase-conjugated secondary antibodies for 45 min at room temperature in 5% BSA in TB ST. • Immunoreactive bands were visualized using enhanced chemiluminescence. Membranes were re-blotted with Mouse anti-Stat3 antibody (Transduction labs cat #21320) or with Rabbit anti AKT1/2 (Santa cruz cat #sc-8312) or Anti-Actin as described above. IV. Chemotaxis of Peripheral Blood Mononuclear Cells (PBMCs)

For assay [2], the system named is phospho-Y705 Stat3 (pSTAT3) in melanoma A375 cells. In words: Immunoblot of Stat3 Y705-phosphorylation in intact cells. To be noted: for inhibition of Stat3 Y705-phosphorylation: 3 μM, 24 hr post treatment (FIG. 6E); for IC50: Homo sapiens, A-375. It is filed as cell-based, human. The procedure: FIGS. 6A-6E. […] A. Human melanoma A375 cells were treated with the indicated concentrations of compounds A or D for 1.3 and 4.5 hr. Cells were lysed and immunoblotted with antibodies against phospho-Y705 Stat3 (pSTAT3) and Stat3. […] B. Cells were treated with 2 μM Compound A and lysed following the indicated times. C. A375 cells were treated with compound D for 4 hr, then washed with medium several times and lysed after 4, 24 and 48 hr of incubation without inhibitors.
as §5

In assay [3] the test system is Squamous Cell carcinoma of Head&Neck (SCCHN) tumor biopsy. Kind of assay: PDX efficacy study, Erlotinib-resistant tumors (Example 2). It is filed as in vivo, NodScid mice.
The test system of assay [4] is Squamous Cell carcinoma of SCCHN tumor biopsy. To be noted: start 700-720 mm^3.
Method: Experimental system: Patient-derived xenograft (PDX) of Squamous Cell carcinoma of SCCHN tumor biopsy subcutaneous implanted into NRG mice.
• Implantation of SCCHN tumor biopsy graft (P11) into NRG mice for efficacy study: Eight months following implantation of SCCHN tumor biopsy graft (P1) described above, tumor cells (P11) were injected into 20 male mice NOD.Cg-Rag1tm1Mom Il2rgtm1Wj1/SzJ mice (Common name: NRG), from self-breeding, using the same procedure described for implantation of P1. […] All treatments initiated simultaneously on day 0.
Treatment groups included: • 1. Vehicle-control: 20% HPbCD 50 μl/injection, IV (3 times/week, qod), 4 mice. • 2. […] Erlotinib 100 mg/kg in HPbCD, PO (5 times/week), 5 mice. • 4.
The length (l) and the width (w) of the tumors were measured 4 times a week and the volumes of the tumors were calculated as follows: v=lw^2/2. […] Mice weight and behavior were examined routinely.
The test system of assay [5] is Squamous Cell carcinoma of Head&Neck (SCCHN) tumor biopsy. Kind of assay: PDX efficacy study, acquired resistance to Erlotinib (Example 1). As to conditions: start ~80 mm^3.
The subject of assay [6] is pStat3 in 451-LU-BR, Mel1617-BR and patient cells M2068, M571. In words: Immunoblot of pStat3 in BRAFi-resistant melanoma cells. It is filed as cell-based, human. As to conditions: 451-LU-BR, Mel1617-BR, patient cells M2068 and M571 (FIG. 8A-C). The method, then: FIGS. 8A-8D. […] FIG. 8C. […] FIG. 8D. Cells of various cancer types were treated with compound D for 4 hr in serum-free medium, and 20 hr in medium with or without 10% serum. Asterisks indicate 10 μM concentration for RPMI8226 and HepG2 cells.
as §5

The test system of the next assay is PBMCs. In words: Chemotaxis of PBMCs towards medium of treated A375 cells. It is filed as cell-based, human. To be noted: medium taken 30 hrs after treatment; read 24 hrs later (FIG. 9A).
The subject of assay [7] is Uteral AdenoSarcoma biopsy. Kind of assay: PDX efficacy study with Afinitor, repeat (Example 5A). It counts as in vivo, NodScid mice. The method, then:
The experiment described in Example 4 was repeated in purchased mice from Harlan.
• 1. […] Afinitor 5 mg/kg PO, 4 times a week (17 mice). • 4.

Assay [8] relates to Uteral AdenoSarcoma biopsy. In words: PDX efficacy study with Afinitor (Examples 4 and 5).
Method: Treatments and Procedures
Treatment groups included: • 1. Control: 20% HPbCD 50 ul IP, qod (6 mice). • 2. […] Afinitor 5 mg/kg PO, qod (15 mice). • 4. Afinitor 5 mg/kg PO (qod)+Compound D 70 mg/kg IV (qod), 6 mice. Afinitor was administered ˜4 hr following Compound D.
All treatments were initiated simultaneously on day0.
The length (l) and the width (w) of the tumors were measured every other day and the volumes of the tumors were calculated as follows: v=lw^2/2.
Following treatments described in phase I (example 4), the mice whose tumors reached the end point were sacrificed, and the following treatments were continued.
• 1. The Afinitor-responder group (group A, open squares) was administered with Afinitor 5 mg/kg PO, qd (8 mice). • 2. The combined treatment group (open circles) continued to get the Afinitor 5 mg/kg PO (qod)+Compound D 70 mg/kg IV (qod) treatment (6 mice). Afinitor was administered ˜4 hr following Compound D. Phase III:
The group was divided to two groups of 4 mice each which received the following treatments on day6 onwards: • The first continued to get Afinitor 5 mg/kg PO, qd (4 mice) • and the second got Afinitor 5 mg/kg PO (qod)+Compound D 70 mg/kg IV (qod) combined treatment (4 mice). Afinitor was administered ˜4 hr following Compound D.
Where [9] appears, read: FIG. 6D, read-out: IC50 of dose-dependent inhibition of pStat3.

Method for PBMCs: A375 cells were treated with the indicated concentrations of Compound A and washed twice with the medium 4 hrs after treatment where indicated (Wash). […] 10,000 PBMCs/well were added to the upper plate.
A375 cells were seeded in 96-well plates (6000 cells/well) and grown overnight. Cells were treated with Compound A and washed twice with the medium 4 hrs after treatment where indicated (Wash). […] 10,000 PBMCs/75 ul medium/well were added to the upper plate. […] Chemotaxis was examined 24 hrs later by Cell Titer Glo analysis of the lower plate.
Thus, it was tested whether treatment of tumor cells with IRS/Stat3 dual modulators may induce the recruitment of peripheral blood mononuclear cells towards the cancer cells. Human melanoma A375 cells were treated with increasing concentrations of compound A and washed twice with the medium 4 hrs post-treatment where indicated (Wash).

Regarding `C[C@]1(O)C[C@@H](c2nc(-c3ccc4ccc(-c5ccccc5)nc4c3)c3c(N)nccn32)C1` [OSI-906, reference compound], the IC50 in the assay on Mel1617-BR was more than 3000 nM; in the assay with Mel1617-Pa, more than 3000 nM; in the assay on 451Lu-BR, more than 3000 nM; in the assay with 451Lu-Pa, more than 3000 nM; in the assay with HCT15, more than 3000 nM; in the assay on MM1S, 200 nM. The IC50 in the assay on HepG2 is 8300 nM; in the assay on PC3, more than 10000 nM. Moreover, the “effect on basal and PLX4032-induced pStat3 levels” value in assay [1] is reported as “had no effect on pStat3 levels”.

Regarding `O=c1c(O)cc2cnc(/C=C/c3ccc(O)c(O)c3Br)sc-2c1O` [IV-4], the “inhibition of Stat3 Y705-phosphorylation” value in assay [2] (A375 cells) is on record as “Complete inhibition”.

For the compound `C#Cc1cccc(Nc2ncnc3cc(OCCOC)c(OCCOC)cc23)c1` [Erlotinib], the “treated mice with tumor regression” value in assay [3] (Erlotinib 100 mg/kg PO, 14 out of 18 mice) is given as 78%. Moreover, the “acquired resistance / regrowth while on treatment” value was “tumors developed resistance to Erlotinib after 1 week and aggressively progressed” in assay [3] (treatment from day 0, tumors ~70 mm^3); “tumors developed resistance to Erlotinib a week following treatment initiation and aggressively progressed” in assay [4]; “all the tumors developed resistance to Erlotinib and progressed aggressively” in [5] (two weeks of treatment). Moreover, in assay [3] (tumors ~130 mm^3 on day 10, treatment from day 10), the “response of Erlotinib-resistant tumors, late treatment” value is reported as “aggressively developed”. In addition, the “tumor response (tumor volume)” value in assay [4] is “their growth was halted and they regressed”; in [5] (Erlotinib 100 mg/kg PO, Compound D 70 mg/kg IV, two weeks), “significant tumor regression in all the treated mice”.

With `Oc1cc(CNC(=S)/C=C/c2cc(O)c(O)c(Br)c2)cc(O)c1O` [Compound A], the IC50 was 300 nM in the assay on Mel1617-BR; 300 nM with Mel1617-Pa; approximately 700 nM in the assay with 451Lu-BR; 300 nM in the assay with MM1S; 1000 nM in the assay on HepG2; 800 nM in the assay on PC3. In addition, the half-maximal inhibitory concentration (IC50) was approximately 2000 nM in assay [2] (A375 cells, 1.3 hr post-treatment (FIG. 6A), read-out: IC50 of inhibition of Stat3 phosphorylation (pStat3)); less than 1000 nM in assay [2] (A375 cells, 3 hr later (4.5 hr treatment, FIG. 6A), read-out: IC50 of inhibition of Stat3 phosphorylation (pStat3)); less than 1000 nM in [2] (setting [9]). In addition, in [1], the “effect on basal and PLX4032-induced pStat3 levels” value was “block both the basal and the PLX4032-induced levels of pStat3”. For the same compound, the “effect on Stat3 phosphorylation in PLX4032-resistant melanoma cells” value in assay [6] is on record as “block Stat3 phosphorylation completely”. Further, the “chemotaxis of PBMCs towards medium of treated A375 cells” value in the assay on PBMCs is listed as “dose dependent chemotaxis was detected”.

`N#C/C(=C\c1cc(O)c(O)c(I)c1)c1ncc2cc(O)c(=O)c(O)c-2s1` [IV-1]: the “inhibition of Stat3 Y705-phosphorylation” value in [2] (A375 cells) is “Complete inhibition”.

On to `O=c1c(O)cc2cnc(/C=C/c3cc(O)c(O)c(I)c3)sc-2c1O` [IV-3], for which, in [2] (A375 cells), the “inhibition of Stat3 Y705-phosphorylation” value is recorded as “Complete inhibition”.

In the case of `N#C/C(=C\c1cc(O)c(O)c(Br)c1)C(=S)NCc1cc(O)c(O)c(O)c1` [F], the IC50 in [2] (setting [9]) worked out at 2000 nM.

`Oc1cc(CNC(=S)/C=C/c2cc(O)c(O)c(I)c2)cc(O)c1O` [C]: the IC50 in [2] (setting [9]) was less than 1000 nM.

Consider `N#C/C(=C\c1cc(O)c(O)c(I)c1)C(=S)NCc1cc(O)c(O)c(O)c1` [B], for which the IC50 in assay [2] (setting [9]) worked out at 1000 nM.

As for `O=c1c(O)cc2cnc(/C=C/c3cc(O)c(O)c(Br)c3)sc-2c1O` [IV-2], the “inhibition of Stat3 Y705-phosphorylation” value in assay [2] (A375 cells) is on record as “Complete inhibition”.

Turning to `CO[C@H]1C[C@@H]2CC[C@@H](C)[C@@](O)(O2)C(=O)C(=O)N2CCCC[C@H]2C(=O)O[C@H]([C@H](C)C[C@@H]2CC[C@@H](OCCO)[C@H](OC)C2)CC(=O)[C@H](C)/C=C(\C)[C@@H](O)[C@@H](OC)C(=O)[C@H](C)C[C@H](C)/C=C/C=C/C=C/1C` [Afinitor, Everolimus], the responder mice in [7] (Afinitor 5 mg/kg PO, 4 times a week) is on record as 14 out of 17; in assay [8] (phase I) it was “half of the group responded”. Also, the “acquired resistance while on treatment” value in assay [7] (after one week of treatment) was “acquired resistance to Afinitor and aggressively progressed”. Moreover, the “average tumor size on day6” value in [8] (Afinitor-responder group A (n=8)) was 590 mm^3. Besides, the “average tumor size on day5” value in assay [8] (Afinitor-responder group A (n=8), 125 mm^3 on day0) was found to be 37 mm^3. Moreover, the “increase of average tumor size” value in [8] (four days, start 130 mm^3, control 16-fold) worked out at 5.5 fold. In [8] (group A tumors, treatment from day 6 (FIG. 5B)), the “response of Afinitor-resistant tumors (phase III)” value is listed as “tumors significantly progressed”. Moreover, in [8] (phase I, four days, Afinitor 5 mg/kg PO, Compound D 70 mg/kg IV), the “effect on tumor growth” value is reported as “growth inhibition of the tumors”. In addition, the “tumor course while on treatment (phase II)” value in [8] (treatment from day0 (FIG. 5A)) was “all tumors developed resistance to Afinitor and aggressively progressed”.

The term IC50 denotes the concentration that gives 50% inhibition.
